# Measured values from US20090270508A1, “GluR2 receptor modulators” (priority 2007, published 2009).
# Legend:
# GluR21 receptors = GluR21 receptors (Rattus norvegicus, UniProt P19491); assay: Whole-cell recording, potentiation of steady-state glutamate-induced currents; type: cell-based; settings: whole-cell mode (−60 mV), 1 mM glutamate
# Description: FIG. 18. (A) Potentiation of steady-state glutamate-induced currents for GluR2; receptors and (B) % current potentiation bar graph.
# Potentiation of steady-state glutamate-induced currents for GluR21 receptors by N,N′-(2S,2′S)-2,2′-(biphenyl-4,4′-diyl)bis(2-fluoropropane-2,1-diyl)dipropane-2-sulfonamide).
# The recordings are in whole-cell mode (−60 mV) and show inward currents elicited by 1 mM glutamate in the presence of various concentrations of N,N′-(2S,2′S)-2,2′-(biphenyl-4,4′-diyl)bis(2-fluoropropane-2,1-diyl)dipropane-2-sulfonamide).
# AMPA = settings: rat, glucose utilization and c-fos expression, Fowler et al., 2004; cited from earlier work
# [1] = target: GluR2 Flip splice variant (Homo sapiens, UniProt P42262); settings: by decreasing desensitization, Quirk and Nisenbaum, 2003; cited from earlier work
# [2] = tested on: rat model of Parkinson's disease; settings: O'Neil et al., 2004; cited from earlier work
# Delta ATD GluR2 = assay: Two electrode voltage clamp (TEVC) recording of glutamate currents in oocytes; type: cell-based; settings: glutamate plus compound versus glutamate alone, FIG. 3
# Excerpt: FIG. 3. LY451646 potentiates glutamate currents from Delta ATD GluR2 as measured by TEVC in oocytes. The top tracing represents application of glutamate alone, the bottom tracing glutamate plus LY451646.
# (§1) LY451646 is an […] of GluR2. […] The top tracing represents application of glutamate alone, the bottom tracing glutamate plus LY451646. […] In the absence of LY451646, the amount of dimerized GluR2 barely rises above baseline (FIG. 4A). With the addition of LY451646, dimers overtake monomers (FIG. 4B).
# GluR2 S1S2 = GluR2 S1S2 (Rattus norvegicus, UniProt P19491, DEL528-650/N775S/S652T/V651G); assay: Dimerization of GluR2 S1S2; settings: FIG. 4A-B
# Excerpt: (A) GluR2 alone; (B) GluR2S1S2 in the presence of LY451646.
# as §1
# GluR2 receptor = target: T1, GluR2 receptor (Rattus norvegicus, UniProt P19491); assay: Electrophysiologic studies in GluR2 expressing oocytes (I/Imax versus concentration); type: cell-based; settings: cells expressing the GluR2 receptor, FIG. 16A-D
# T1 construct: expressed in transfected cells; host or cells: Xenopus laevis oocytes
# Description: FIG. 16A-E. Electrophysiologic studies comparing N,N′-(2R,2′R)-2,2′-(biphenyl-4,4′-diyl)bis(propane-2,1-diyl)dipropane-2-sulfonamide) with LY451646. A. Microamperes of current over various periods of time in a GluR2 expressing oocyte (Xenopus laevis oocyte with microinjected rat GluR2 receptor-encoding mRNA), exposed to various concentrations (0.001 μM, 0.01 μM, 0.1 μM and 1 μM) of N,N′-(2R,2′R)-2,2′-(biphenyl-4,4′-diyl)bis(propane-2,1-diyl)dipropane-2-sulfonamide). B. Microamperes of current over various periods of time in a GluR2 expressing oocyte exposed to various concentrations (0.001 μM, 0.01 μM, 0.1 μM, 1 μM and 10 μM) of LY451646. C. In an oocyte expressing GluR2, ratio of current/maximal current (I/Imax) versus concentration of N,N′-(2R,2′R)-2,2′-(biphenyl-4,4′-diyl)bis(propane-2,1-diyl)dipropane-2-sulfonamide). D. In an oocyte expressing GluR2, ratio of current/maximal current (I/Imax) versus concentration of LY451646. E. N,N′-(2R,2′R)-2,2′-(biphenyl-4,4′-diyl)bis(propane-2,1-diyl)dipropane-2-sulfonamide).
# despair = settings: Bai et al., 2001; cited from earlier work
# [3] = tested on: hippocampal cell proliferation; settings: rats, Bai et al., 2003; cited from earlier work
# locomotor activity = assay: Amphetamine-induced locomotor activity in activity chambers; type: in vivo; settings: mice, 1 mg/kg and 3 mg/kg i.p.
# Description: FIG. 17. Effect of N,N′-(2R,2′R)-2,2′-(biphenyl-4,4′-diyl)bis(propane-2,1-diyl)dipropane-2-sulfonamide) on locomotor activity in the context of various doses of amphetamine.
# Mice (male, 8 weeks of age; 129S6/SvEv from Taconic) were housed in groups of five for one week. Animals were injected (i.p.) with either vehicle (diluent:saline at a ratio of 3:50 v/v), or one of two doses of GR341 (1 mg/kg and 3 mg/kg). After 15 minutes, animals were injected (i.p.) either with saline or Amphetamine at 3 mg/kg. Mice were held individually without food or water for an additional 15 minutes and then placed in Plexiglas activity chambers (model ENV-520; Med Associates, St. Albans, Vt.) (43.2 cm long×43.2 cm wide×30.5 cm high) to assess locomotor activity. Mice were placed into the center of the open field, and activity was recorded for 30 minutes with subtotals for 5-minute increments. Testing was performed in darkness to minimize anxiety.
# Sequence of GluR21 receptors (P19491 22-883 isoform P19491-2 limits assumed): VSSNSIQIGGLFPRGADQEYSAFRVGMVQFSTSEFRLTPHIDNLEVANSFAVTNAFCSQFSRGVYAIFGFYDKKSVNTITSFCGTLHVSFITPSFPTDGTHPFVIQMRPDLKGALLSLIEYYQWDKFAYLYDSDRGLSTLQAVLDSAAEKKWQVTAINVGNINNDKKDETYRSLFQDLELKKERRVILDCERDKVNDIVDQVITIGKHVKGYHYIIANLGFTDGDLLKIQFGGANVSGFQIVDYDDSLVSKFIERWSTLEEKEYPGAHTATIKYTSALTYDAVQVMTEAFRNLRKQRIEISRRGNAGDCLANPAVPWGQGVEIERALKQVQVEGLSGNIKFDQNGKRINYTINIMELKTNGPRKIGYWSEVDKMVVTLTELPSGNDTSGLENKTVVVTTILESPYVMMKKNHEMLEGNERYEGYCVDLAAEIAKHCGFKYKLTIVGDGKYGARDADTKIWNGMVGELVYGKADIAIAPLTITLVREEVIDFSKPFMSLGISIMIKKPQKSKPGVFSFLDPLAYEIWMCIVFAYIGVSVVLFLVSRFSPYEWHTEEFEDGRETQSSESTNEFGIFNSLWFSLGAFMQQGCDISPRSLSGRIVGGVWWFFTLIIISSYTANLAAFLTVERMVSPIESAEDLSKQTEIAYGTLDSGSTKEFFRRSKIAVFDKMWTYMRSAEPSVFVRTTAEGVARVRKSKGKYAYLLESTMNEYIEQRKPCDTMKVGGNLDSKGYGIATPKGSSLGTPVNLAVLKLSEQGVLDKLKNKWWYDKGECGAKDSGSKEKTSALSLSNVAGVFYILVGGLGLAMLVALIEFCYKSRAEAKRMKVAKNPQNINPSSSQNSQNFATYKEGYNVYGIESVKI
# T1 sequence (P19491 22-883): as the sequence (P19491 22-883 isoform P19491-2 limits assumed) above, with T744N, P745A, S754N, V758L, A775S, K776G, D777G, S778G, G779D counted along it
# Sequence of GluR2 S1S2 (P19491 with tags, fused parts or gaps DEL528-650/V651G/S652T/N775S): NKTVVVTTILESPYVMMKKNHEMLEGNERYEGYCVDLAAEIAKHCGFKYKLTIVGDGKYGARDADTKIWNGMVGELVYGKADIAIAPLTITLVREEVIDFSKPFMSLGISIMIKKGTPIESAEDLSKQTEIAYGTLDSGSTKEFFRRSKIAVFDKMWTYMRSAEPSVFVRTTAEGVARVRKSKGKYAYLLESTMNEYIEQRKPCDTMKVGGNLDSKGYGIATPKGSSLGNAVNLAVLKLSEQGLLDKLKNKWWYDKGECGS
# Sequence of GluR2 Flip splice variant (P42262 22-883 isoform P42262-2 limits assumed): as the sequence (P19491 22-883 isoform P19491-2 limits assumed) above, with T170M, A270T, G743R, P831A counted along it
smiles,measurement,setting,value
"CC(C)S(=O)(=O)NC[C@@](C)(F)c1ccc(-c2ccc([C@](C)(F)CNS(=O)(=O)C(C)C)cc2)cc1 [N,N′-(2S,2′S)-2,2′-(biphenyl-4,4′-diyl)bis(2-fluoropropane-2,1-diyl)dipropane-2-sulfonamide)]",saturating concentration,GluR21 receptors,200 nM
same,effect on glutamate receptor currents,GluR21 receptors; FIG. 18,potentiates glutamate receptor currents
same,EC50,"GluR21 receptors; FIG. 18B, approximately half saturating concentration",~50 nM
"CC(CNS(=O)(=O)C(C)C)c1ccc(-c2ccc(C#N)cc2)cc1 (centres unmarked) [LY404187, R,S—N-2-(4-(4-Cyanophenyl)phenyl)propyl 2-propanesulfonamide]",glutamate dependent AMPA stimulation of the brain,AMPA,increases glutamate dependent AMPA stimulation
same,receptor's response to glutamate,[1],potentiate the receptor's response to glutamate
same,neurotrophic effect,[2],exhibit a neurotrophic effect
CC(C)S(=O)(=O)NC[C@H](C)c1ccc(-c2ccc(C#N)cc2)cc1 [LY451646],effect on glutamate currents,Delta ATD GluR2,potentiate glutamate currents
same,dimerization of GluR2 S1S2,GluR2 S1S2,promotes dimerization
same,EC50,GluR2 receptor,130 ± 16 nM
same,"""despair"" in the FST and TST",despair,reduce “despair”
same,hippocampal cell proliferation,[3],increase hippocampal cell proliferation
CC(C)S(=O)(=O)NC[C@H](C)c1ccc(-c2ccc([C@@H](C)CNS(=O)(=O)C(C)C)cc2)cc1 [GR341],EC50,GluR2 receptor,12.7 ± 0.6 nM
same,effect on amphetamine-induced locomotor activity,"locomotor activity; amphetamine 3 mg/kg i.p., 30 minutes, FIG. 17",inhibited amphetamine-induced locomotor activity
same,effect of the compound alone on locomotor activity,locomotor activity; saline instead of amphetamine,no significant effect
